Test results as given in PMC10560236, “A protein kinase C α and β inhibitor blunts hyperphagia to halt renal function decline and reduces adiposity in a rat model of obesity-driven type 2 diabetes” (Scientific Reports, 2023).

What was measured:
[1] = target: PKCγ (Homo sapiens, UniProt P05129); test: Z'-Lyte recombinant enzyme assay, PKCγ; type: biochemical
Experimental: (§1) Half maximal inhibitory concentrations of Cmpd 1 were determined by Z’-Lyte biochemical assays (Life Technologies SelectScreen™ Kinase Profiling Services, Thermo Fisher Scientific). Kinome selectivity was determined at 1 μM Cmpd 1 concentration against a panel of 119 kinases. The original kinome tree in Fig. 1b was taken from Ref.[68].

[2] = target: T1, PKCι (Homo sapiens, UniProt P41743); test: Z'-Lyte recombinant enzyme assay, PKCι; type: biochemical
T1 sequence (P41743 1-596): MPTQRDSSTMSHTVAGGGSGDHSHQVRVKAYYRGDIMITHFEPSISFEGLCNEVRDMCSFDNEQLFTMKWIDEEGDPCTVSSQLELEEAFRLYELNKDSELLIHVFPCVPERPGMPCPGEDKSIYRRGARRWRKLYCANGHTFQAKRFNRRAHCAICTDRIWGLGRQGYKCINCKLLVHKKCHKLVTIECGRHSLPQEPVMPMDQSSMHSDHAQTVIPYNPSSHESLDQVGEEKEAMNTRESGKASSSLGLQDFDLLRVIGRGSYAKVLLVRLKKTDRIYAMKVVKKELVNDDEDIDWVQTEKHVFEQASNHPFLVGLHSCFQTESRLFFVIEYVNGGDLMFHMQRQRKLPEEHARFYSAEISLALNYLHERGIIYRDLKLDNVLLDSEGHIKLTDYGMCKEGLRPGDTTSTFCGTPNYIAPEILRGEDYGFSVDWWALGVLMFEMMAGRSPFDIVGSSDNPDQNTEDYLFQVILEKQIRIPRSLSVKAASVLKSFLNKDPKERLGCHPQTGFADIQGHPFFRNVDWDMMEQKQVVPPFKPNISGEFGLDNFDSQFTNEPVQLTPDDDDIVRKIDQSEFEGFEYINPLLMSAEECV
Experimental: as §1

[3] = tested on: panel of 119 kinases; test: Kinome selectivity profiling; type: biochemical; details: 1 μM Cmpd 1, panel of 119 kinases
Experimental: as §1

[4] = tested on: HEK293 cells overexpressing PKCβ2; test: PMA-induced IL-8 production in HEK293 cells over-expressing PKCβ2; type: cell-based; details: HEK293 over-expressing PKCβ2, 3 nM PMA, 4-h supernatants; read-out: IC50, inhibition of IL-8 production in response to PMA
Experimental: For the HEK293 cell-based assay, HEK293 cells engineered to over-express full-length PKCβ2 were stimulated with 3 nM PMA in DMEM media supplemented with 0.5% FBS. 4-h cell culture supernatants were analyzed for IL-8 by MSD (Rockville, MD).

[5] = tested on: PKCα/β; test: In vivo kinase occupancy profiling of spleens (probe-based chemoproteomics); set-up: species or system rat; details: Cmpd 1 chow-dosed ZSF1 obese rats; only PKCα/β from over 200 detectable kinases
Experimental: In vivo kinase profiling Spleens from 22–23 week old ZSF1 obese male rats provided no drug Chow or Cmpd 1 chow (n = 2 each) were snap frozen, pulverized, and approximately 100–150 mg of each sample were sent to ActiveX for analysis using a probe-based chemoproteomics platform to measure the fraction of kinase bound versus unbound by an ATP-competitive inhibitor. A kinase bound by an ATP-competitive inhibitor such as Cmpd 1 will be less accessible to a covalent ATP probe, and will consequently have a reduced peak in quantitative mass spectrometry of the tryptic fragment corresponding to its active site pulled down by the covalent biotinylated ATP probe. Lysates from n = 2 animals for each group were combined for the analysis.

IC50 [1]: 96 nM
IC50 [2]: > 10000 nM
Compound: Cc1ncc(F)c(Nc2n[nH]c3c2CN(C(=O)N2C[C@@H](C)N(CC4CCOCC4)C[C@@H]2C)C3(C)C)n1 [Cmpd 1, 5-[(2S,5R)-2,5-dimethyl-4-(tetrahydro-2H-pyran-4-ylmethyl)piperazin-l-yl]carbonyl-N-(5-fluoro-2-methylpyrimidin-4-yl)-6,6-dimethyl-1,4,5,6-tetrahydropyrrolo[3,4-c]pyrazol-3-amine]
Kinome selectivity [3]: good selectivity
IC50 [4]: 26 nM
Kinase occupancy in spleen [5]: > 90%
